The results in this text go back to patent US10377741B2, “Substituted heteroaryl aldehyde compounds and methods for their use in increasing tissue oxygenation” (Global Blood Therapeutics, Inc., priority 2011, dated 2019).

The target in the assay is T1, purified Hemoglobin S (HbS) (Homo sapiens, UniProt P68871+P69905, E7V).
T1 construct: HbS was purified by a modified procedure; from tissue; host or cells: blood of homozygous sickle cell patients (CHORI); for the polymerization assay purified by the CRO VIRUSYS
Kind of assay: Modulation of hemoglobin oxygen affinity: oxygen equilibrium curves (HEMOX) in purified HbS. The format is biochemical, human (homozygous sickle cell patients). The conditions noted are these: 25 μM purified HbS, 45 min at 37° C. Here is the method:
Oxygen equilibrium curves (OEC) in purified Hemoglobin S (HbS) were measured by the change in p50, the partial pressure of oxygen at which the heme binding sites in the HbS sample are 50% saturated with oxygen. HbS was purified by a modified procedure (Antonini and Brunori, 1971; Heomoglobin and Myoglobin in their Reactions with Ligands; North Holland Publishing Company; Amsterdam, London) from blood obtained from homozygous sickle cell patients though the Hemoglobinopathy Center at Children's Hospital Oakland Research Institute (CHORI) with Institutional Review Board approval. Oxygen equilibrium curves were carried out with a HEMOX analyzer, (TCS Scientific, New Hope, Pa.). Five hundred μL of 250 μM purified HbS were diluted into 4.5 mL of HEMOX buffer (30 mM TES, 130 mM NaCl, 5 mM KCl, pH=7.4) resulting in a final hemoglobin concentration of 25 μM. The compounds were added at the final desired concentrations. The mixture was incubated for 45 min at 37° C. and then transferred to the Hemox sample chamber. The samples were saturated with oxygen by flushing with compressed air for 10 minutes. The samples were then flushed with pure nitrogen and the absorbance of deoxy-Hb was recorded as a function of the solution pO2. The oxygen equilibrium data was then fit to the Hill Model to obtain values for p50. The deoxygenation curves for both HbS alone (control) and HbS in the presence of compound were collected with the TCS software. The p50 for purified Hbs was typically 13.8±1.6. Delta p50 values were obtained from the p50 value for control minus the p50 value for HbS treated with compound divided by the p50 value for the control.
The compounds of Table 1 that were where tested in the assay above were all found to have positive delta p50 values. Delta p50% is calculated from [[p50(HbS) −p50(HbS treated with compound)]/p50(HbS)]×100. Table 2 below lists the delta p50% values where + indicates a delta p50% of between 0 and 29, ++ indicates a delta p50% of between 30 and 50, and +++ indicates a delta p50% of 50 or greater. Unless noted otherwise, the compounds in Table 2 were tested at 30 μM.

Consider `COc1cc(C=O)c(OCc2cc(-c3cn[nH]c3)cn3ccnc23)cn1` [Compound 102, 5-((6-(1H-pyrazol-4-yl)imidazo[1,2-a]pyridin-8-yl)methoxy)-2-methoxyisonicotinaldehyde], for which the “delta p50%” value (compound at 30 μM) is “+ (a delta p50% of between 0 and 29)”.

Consider `COC(=O)c1cc(COc2cnc(OC)cc2C=O)c2nc(Br)cn2c1` [Compound 138, methyl 2-bromo-8-(((4-formyl-6-methoxypyridin-3-yl)oxy)methyl)imidazo[1,2-a]pyridine-6-carboxylate], for which the “delta p50%” value (compound at 30 μM) is “+ (a delta p50% of between 0 and 29)”.

Consider `COc1cc(C=O)c(OCc2ccc(C(F)(F)F)nc2)cn1` [Compound 40, 2-methoxy-5-((6-(trifluoromethyl)pyridin-3-yl)methoxy)isonicotinaldehyde], for which the “delta p50%” value (compound at 100 μM) was “+ (a delta p50% of between 0 and 29)”.

Take `COc1cc(C=O)c(OCc2cccnc2C#N)cn1` [Compound 64, 3-((4-formyl-6-methoxypyridin-3-yloxy)methyl)picolinonitrile]: under “compound at 30 μM”, the “delta p50%” value was “+ (a delta p50% of between 0 and 29)”.

In the case of `COc1cc(C=O)c(OCc2cnccc2-c2cn[nH]c2)cn1` [Compound 95, 5-((4-(1H-pyrazol-4-yl)pyridin-3-yl)methoxy)-2-methoxyisonicotinaldehyde], the “delta p50%” value (compound at 30 μM) was “+ (a delta p50% of between 0 and 29)”.

In the case of `CNC(=O)c1cccn2cc(COc3cnc(OC)cc3C(O)O)nc12` [Compound 72, 2-((4-(dihydroxymethyl)-6-methoxypyridin-3-yloxy)methyl)-N-methylimidazo[1,2-a]pyridine-8-carboxamide], the “delta p50%” value (compound at 30 μM) is “+ (a delta p50% of between 0 and 29)”.

Turning to `COc1cc(C=O)c(OCc2cccc3[nH]ncc23)cn1` [Compound 87, 5-((1H-indazol-4-yl)methoxy)-2-methoxyisonicotinaldehyde], where the note is “compound at 30 μM”, the “delta p50%” value was “+ (a delta p50% of between 0 and 29)”.

On to `COc1cc(C=O)c(OCc2cn3cccc(-c4ccnn4C)c3n2)cn1` [Compound 61, 2-methoxy-5-((8-(1-methyl-1H-pyrazol-5-yl)imidazo[1,2-a]pyridin-2-yl)methoxy)isonicotinaldehyde], for which the “delta p50%” value (compound at 30 μM) was “+ (a delta p50% of between 0 and 29)”.

For the compound `Cc1ccc(OCc2ccnc3c2c(C)nn3C)c(C=O)n1` [Compound 113, 3-((1,3-dimethyl-1H-pyrazolo[3,4-b]pyridin-4-yl)methoxy)-6-methylpicolinaldehyde], the “delta p50%” value (compound at 30 μM) was “+ (a delta p50% of between 0 and 29)”.

Consider `CCOC(=O)C1CSC(c2cc(OC)ncc2OCc2cccn3ccnc23)N1` (centres unmarked) [Compound 126, ethyl 2-(5-(imidazo[1,2-a]pyridin-8-ylmethoxy)-2-methoxypyridin-4-yl)thiazolidine-4-carboxylate], for which, under “compound at 30 μM”, the “delta p50%” value was “+ (a delta p50% of between 0 and 29)”.

Regarding `COc1cc(C=O)c(OCc2cc3ccccc3nc2Cl)cn1` [Compound 116, 5-((2-chloroquinolin-3-yl)methoxy)-2-methoxyisonicotinaldehyde], under “compound at 30 μM”, the “delta p50%” value is “+ (a delta p50% of between 0 and 29)”.

With `Cc1ccc(OCc2cccc3ocnc23)c(C=O)n1` [Compound 99, 3-(benzo[d]oxazol-4-ylmethoxy)-6-methylpicolinaldehyde], where the note is “compound at 30 μM”, the “delta p50%” value was “+ (a delta p50% of between 0 and 29)”.

`CNC(=O)c1cccn2cc(COc3cnc(OC)cc3C3OCCO3)nc12` [Compound 69, 2-((4-(1,3-dioxolan-2-yl)-6-methoxypyridin-3-yloxy)methyl)-N-methylimidazo[1,2-a]pyridine-8-carboxamide]: the “delta p50%” value (compound at 30 μM) was “+ (a delta p50% of between 0 and 29)”.

Regarding `COc1cc(C=O)c(OCc2cccnc2-c2cn[nH]c2)cn1` [Compound 128, 5-((2-(1H-pyrazol-4-yl)pyridin-3-yl)methoxy)-2-methoxyisonicotinaldehyde], the “delta p50%” value (compound at 30 μM) was “+ (a delta p50% of between 0 and 29)”.

Consider `O=Cc1ccncc1NC(=O)c1cccn2ccnc12` [Compound 51, N-(4-formylpyridin-3-yl)imidazo[1,2-a]pyridine-8-carboxamide], for which the “delta p50%” value (compound at 30 μM) was “+ (a delta p50% of between 0 and 29)”.

Turning to `COc1cc(C=O)c(OCc2ccc3c(c2)c(Cl)nn3C)cn1` [Compound 111], the “delta p50%” value (compound at 30 μM) is “+ (a delta p50% of between 0 and 29)”.

Consider `O=Cc1cccnc1CCc1cccn2ccnc12` [Compound 12, 2-(2-(imidazo[1,2-a]pyridin-8-yl)ethyl)nicotinaldehyde], for which, where the note is “compound at 100 μM”, the “delta p50%” value was “+ (a delta p50% of between 0 and 29)”.

Turning to `COc1cc(C=O)c(OCc2cn3cccc(Br)c3n2)cn1` [Compound 57, 5-((8-bromoimidazo[1,2-a]pyridin-2-yl)methoxy)-2-methoxyisonicotinaldehyde], the “delta p50%” value (compound at 100 μM) is “++ (a delta p50% of between 30 and 50)”.

For `Cc1ccc(OCc2ccc3c(c2)c(Cl)nn3C)c(C=O)n1` [Compound 109, 3-((3-chloro-1-methyl-1H-indazol-5-yl)methoxy)-6-methylpicolinaldehyde], the “delta p50%” value (compound at 30 μM) was “+ (a delta p50% of between 0 and 29)”.

Take `COc1cc(C=O)c(OCc2ccnc3cccnc23)cn1` [Compound 105, 5-((1,5-naphthyridin-4-yl)methoxy)-2-methoxyisonicotinaldehyde]: where the note is “compound at 30 μM”, the “delta p50%” value is “+ (a delta p50% of between 0 and 29)”.

Take `COc1cc(C=O)c(OCc2ccc(C#N)nc2)cn1` [Compound 62, 5-((4-formyl-6-methoxypyridin-3-yloxy)methyl)picolinonitrile]: the “delta p50%” value (compound at 30 μM) is “+ (a delta p50% of between 0 and 29)”.

With `COc1cc(C=O)c(OCc2cccnc2C)cn1` [Compound 38, 2-methoxy-5-((2-methylpyridin-3-yl)methoxy)isonicotinaldehyde], the “delta p50%” value (compound at 30 μM) was “+ (a delta p50% of between 0 and 29)”.

Regarding `COc1cc(C=O)c(OCc2cc3ccccc3nc2-c2ccn[nH]2)cn1` [Compound 117], the “delta p50%” value (compound at 30 μM) is “+ (a delta p50% of between 0 and 29)”.

Take `Cc1ccc(OCc2cccc3c2cnn3C)c(C=O)n1` [Compound 85, 6-methyl-3-((1-methyl-1H-indazol-4-yl)methoxy)picolinaldehyde]: the “delta p50%” value (compound at 30 μM) is “+ (a delta p50% of between 0 and 29)”.

Turning to `COc1cc(C=O)c(OCc2cnccc2C)cn1` [Compound 39, 2-methoxy-5-((4-methylpyridin-3-yl)methoxy)isonicotinaldehyde], the “delta p50%” value (compound at 30 μM) is “+ (a delta p50% of between 0 and 29)”.

Consider `COc1cc(C=O)c(OCc2ccc3c(cnn3C)c2)cn1` [Compound 110, 2-methoxy-5-((1-methyl-1H-indazol-5-yl)methoxy)isonicotinaldehyde], for which the “delta p50%” value (compound at 30 μM) is “+ (a delta p50% of between 0 and 29)”.

Take `COc1cc(C=O)c(OCc2cncc(C(N)=O)c2)cn1` [Compound 101, 5-((4-formyl-6-methoxypyridin-3-yloxy)methyl)nicotinamide]: the “delta p50%” value (compound at 30 μM) is “+ (a delta p50% of between 0 and 29)”.

`O=Cc1ccncc1OCc1cccn2cncc12` [Compound 7, 3-(imidazo[1,5-a]pyridin-8-ylmethoxy)isonicotinaldehyde]: the “delta p50%” value (compound at 30 μM) was “+ (a delta p50% of between 0 and 29)”.

With `Cc1ccc(OCc2cccn3ccnc23)c(C=O)n1` [Compound 49, 3-(imidazo[1,2-a]pyridin-8-ylmethoxy)-6-methylpicolinaldehyde], the “delta p50%” value (compound at 30 μM) was “++ (a delta p50% of between 30 and 50)”.

For `Cc1ccc(OCc2cccn3cncc23)c(C=O)n1` [Compound 139, 3-(imidazo[1,5-a]pyridin-8-ylmethoxy)-6-methylpicolinaldehyde], the “delta p50%” value (compound at 30 μM) is “+ (a delta p50% of between 0 and 29)”.

On to `COc1cc(C=O)c(OCc2cnc3c(cnn3C)c2)cn1` [Compound 122, 2-methoxy-5-((1-methyl-1H-pyrazolo[3,4-b]pyridin-5-yl)methoxy)isonicotinaldehyde], for which the “delta p50%” value (compound at 30 μM) is “+ (a delta p50% of between 0 and 29)”.

With `Cc1ccc(OCc2ccc3ccncc3c2)c(C=O)n1` [Compound 83, 3-(isoquinolin-7-ylmethoxy)-6-methylpicolinaldehyde], under “compound at 30 μM”, the “delta p50%” value was “+ (a delta p50% of between 0 and 29)”.

With `COc1cc(C(O)O)c(OCc2cn3cccc(C(N)=O)c3n2)cn1` [Compound 73, 2-((4-(dihydroxymethyl)-6-methoxypyridin-3-yloxy)methyl)imidazo[1,2-a]pyridine-8-carboxamide], for the setting “compound at 30 μM”, the “delta p50%” value is “+ (a delta p50% of between 0 and 29)”.

For `COc1cc(C=O)c(OCc2ccc3ccncc3c2)cn1` [Compound 82, 5-(isoquinolin-7-ylmethoxy)-2-methoxyisonicotinaldehyde], where the note is “compound at 30 μM”, the “delta p50%” value was “+ (a delta p50% of between 0 and 29)”.

Regarding `COc1cc(C=O)c(OCc2cnc3ccccc3n2)cn1` [Compound 118, 2-methoxy-5-(quinoxalin-2-ylmethoxy)isonicotinaldehyde], the “delta p50%” value (compound at 30 μM) was “+ (a delta p50% of between 0 and 29)”.
